Source: patent publication US20250346616A1 (DIZAL (JIANGSU) PHARMACEUTICAL CO., LTD., priority 2022, published 2025)

What was measured:
[1] = target: Recombinant ROCK2 (Homo sapiens (Human), UniProt O75116); assay: Lance Ultra Kinase Assay, ROCK2 inhibition; type: biochemical; settings: ATP at Km, 30 min pre-incubation, 1 h reaction
Method: (§1) The inhibition potency of compounds against these enzymes was assessed using Lance Ultra Kinase Assay. In brief, recombinant kinases were pre-incubated in the presence or absence of compound at room temperature for 30 minutes. The reaction was initiated by the addition of the ATP (Km) and substrate peptide which could be phosphorylated by kinases in the reaction. After 1 h incubation, the reaction was stopped by the addition of the detection reagent mix containing EDTA. The fluorescence was measured at 615 nm and 665 nm, respectively with excitation wavelength at 320 nm. The calculated signal ratio of 665 nm/615 nm is proportional to the kinase activity.

[2] = target: Recombinant ROCK1 (Homo sapiens (Human), UniProt Q13464); assay: Lance Ultra Kinase Assay, ROCK1 inhibition; type: biochemical; settings: ATP at Km, 30 min pre-incubation, 1 h reaction
Chain of Recombinant ROCK1 (Q13464 whole entry): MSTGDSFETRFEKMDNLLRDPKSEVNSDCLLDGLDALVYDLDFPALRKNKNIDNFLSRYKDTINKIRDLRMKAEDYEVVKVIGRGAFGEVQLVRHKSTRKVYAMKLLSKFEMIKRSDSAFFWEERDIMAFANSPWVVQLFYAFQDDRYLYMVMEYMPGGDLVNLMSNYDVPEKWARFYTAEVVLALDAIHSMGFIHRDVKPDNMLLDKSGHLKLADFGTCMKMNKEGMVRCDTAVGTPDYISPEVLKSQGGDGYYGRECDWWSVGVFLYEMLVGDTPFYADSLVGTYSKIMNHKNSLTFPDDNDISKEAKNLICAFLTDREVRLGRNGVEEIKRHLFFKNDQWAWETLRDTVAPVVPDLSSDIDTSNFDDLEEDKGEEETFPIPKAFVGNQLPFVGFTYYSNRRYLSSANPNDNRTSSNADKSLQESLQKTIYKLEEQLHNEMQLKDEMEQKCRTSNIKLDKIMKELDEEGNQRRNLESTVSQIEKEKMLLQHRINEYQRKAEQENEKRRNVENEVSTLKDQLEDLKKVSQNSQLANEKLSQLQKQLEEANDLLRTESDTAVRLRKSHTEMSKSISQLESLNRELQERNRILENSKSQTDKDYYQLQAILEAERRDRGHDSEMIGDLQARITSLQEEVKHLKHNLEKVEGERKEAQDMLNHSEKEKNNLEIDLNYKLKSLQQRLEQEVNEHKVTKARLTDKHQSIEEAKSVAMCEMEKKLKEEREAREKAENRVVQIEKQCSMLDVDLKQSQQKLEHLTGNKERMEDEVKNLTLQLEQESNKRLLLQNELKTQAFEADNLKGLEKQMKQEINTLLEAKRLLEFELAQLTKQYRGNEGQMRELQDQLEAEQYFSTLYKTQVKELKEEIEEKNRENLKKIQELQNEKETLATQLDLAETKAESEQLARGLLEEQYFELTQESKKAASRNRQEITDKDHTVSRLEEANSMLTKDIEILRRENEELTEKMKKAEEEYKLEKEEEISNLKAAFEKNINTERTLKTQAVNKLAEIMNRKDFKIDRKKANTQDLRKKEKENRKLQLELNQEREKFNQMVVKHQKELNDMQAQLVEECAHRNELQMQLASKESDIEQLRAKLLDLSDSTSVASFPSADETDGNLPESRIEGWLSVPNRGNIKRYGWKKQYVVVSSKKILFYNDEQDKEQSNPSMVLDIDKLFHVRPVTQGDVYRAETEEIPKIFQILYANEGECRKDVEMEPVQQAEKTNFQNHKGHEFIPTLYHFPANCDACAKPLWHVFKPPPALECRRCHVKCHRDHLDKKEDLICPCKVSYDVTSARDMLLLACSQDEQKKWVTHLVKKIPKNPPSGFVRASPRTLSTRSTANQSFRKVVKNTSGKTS
Method: as §1

Chain of Recombinant ROCK2 (O75116 whole entry): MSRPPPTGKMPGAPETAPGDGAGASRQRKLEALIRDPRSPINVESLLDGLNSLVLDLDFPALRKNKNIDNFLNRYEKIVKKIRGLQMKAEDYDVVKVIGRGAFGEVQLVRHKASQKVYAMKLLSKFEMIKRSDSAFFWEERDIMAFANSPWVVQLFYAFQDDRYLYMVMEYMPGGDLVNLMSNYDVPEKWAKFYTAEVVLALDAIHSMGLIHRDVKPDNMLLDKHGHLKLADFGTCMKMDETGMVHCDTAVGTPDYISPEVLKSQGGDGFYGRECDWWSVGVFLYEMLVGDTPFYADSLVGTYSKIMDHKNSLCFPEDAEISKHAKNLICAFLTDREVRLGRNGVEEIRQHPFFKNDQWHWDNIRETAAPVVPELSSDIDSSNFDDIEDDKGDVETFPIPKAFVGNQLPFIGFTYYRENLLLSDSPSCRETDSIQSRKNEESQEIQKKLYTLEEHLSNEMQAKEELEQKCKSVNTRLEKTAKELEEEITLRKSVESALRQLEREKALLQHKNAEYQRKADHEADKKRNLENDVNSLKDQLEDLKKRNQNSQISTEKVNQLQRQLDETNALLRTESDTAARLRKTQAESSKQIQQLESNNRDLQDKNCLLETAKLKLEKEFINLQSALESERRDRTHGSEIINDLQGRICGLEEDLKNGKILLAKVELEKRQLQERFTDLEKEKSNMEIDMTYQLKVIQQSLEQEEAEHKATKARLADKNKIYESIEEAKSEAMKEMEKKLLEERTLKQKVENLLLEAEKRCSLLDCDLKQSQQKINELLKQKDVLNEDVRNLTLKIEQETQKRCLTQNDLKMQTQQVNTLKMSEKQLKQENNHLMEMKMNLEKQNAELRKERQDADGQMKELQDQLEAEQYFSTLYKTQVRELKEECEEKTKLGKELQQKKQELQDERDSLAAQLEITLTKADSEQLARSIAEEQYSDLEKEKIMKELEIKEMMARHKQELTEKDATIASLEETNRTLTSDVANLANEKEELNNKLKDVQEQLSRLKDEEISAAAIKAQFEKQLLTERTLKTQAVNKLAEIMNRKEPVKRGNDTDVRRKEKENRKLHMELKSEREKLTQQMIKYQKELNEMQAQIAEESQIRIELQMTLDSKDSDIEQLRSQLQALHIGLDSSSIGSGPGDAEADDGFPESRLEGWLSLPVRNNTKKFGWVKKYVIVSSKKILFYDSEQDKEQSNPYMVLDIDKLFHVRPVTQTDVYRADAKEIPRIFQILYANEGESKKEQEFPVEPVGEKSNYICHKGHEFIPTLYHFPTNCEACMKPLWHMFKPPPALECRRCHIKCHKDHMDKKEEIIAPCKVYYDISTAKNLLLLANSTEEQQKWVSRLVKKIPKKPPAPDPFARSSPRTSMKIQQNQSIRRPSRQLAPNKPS

Question: What does the source list for `COc1cccc(C(CN2CCN(C)CC2)NC(=O)c2cccc3c(-c4cn[nH]c4)c[nH]c23)c1` (single isomer, unassigned) [Example 137, N-(1-(3-methoxyphenyl)-2-(4-methylpiperazin-1-yl)ethyl)-3-(1H-pyrazol-4-yl)-1H-indole-7-carboxamide]?
Answer: IC50 [1]: 65 nM; IC50 [2]: 149 nM

Question: What does the source list for `Cc1cncc(C(CN)C(=O)Nc2cccc3c(-c4cn[nH]c4)c[nH]c23)c1` (single isomer, unassigned) [Example 63, N-(3-(1H-pyrazol-4-yl)-1H-indol-7-yl)-3-amino-2-(5-methylpyridin-3-yl)propanamide]?
Answer: IC50 [1]: 0.24 nM; IC50 [2]: 0.43 nM

Question: With `NCC(C(=O)Nc1cccc2c(-c3cn[nH]c3)c[nH]c12)C1CCCC1` (racemic) [Example 95, 3-amino-2-cyclopentyl-N-[3-(1H-pyrazol-4-yl)-1H-indol-7-yl]propanamide] as the molecule, how does the IC50 [1] read?
Answer: 2.3 nM

Question: And the IC50 [2]?
Answer: 3.7 nM

Question: `COc1cccc([C@H](N)C(=O)Nc2cccc3c(-c4cn[nH]c4)c[nH]c23)c1` [Example 41, (2S)-2-amino-2-(3-methoxyphenyl)-N-[3-(1H-pyrazol-4-yl)-1H-indol-7-yl]acetamide] was tested. Which IC50 [1] did it give?
Answer: 3.5 nM

Question: And the IC50 [2]?
Answer: 5.4 nM

Question: Which IC50 [1] does the source give for `CN1CCN(C(C(=O)Nc2cccc3c(-c4cn[nH]c4)c[nH]c23)c2ccccc2)CC1` (racemic) [Example 46, 2-(4-methylpiperazin-1-yl)-2-phenyl-N-[3-(1H-pyrazol-4-yl)-1H-indol-7-yl]acetamide] here?
Answer: 2.3 nM

Question: And the IC50 [2]?
Answer: 4 nM

Question: What does the source list for `CP(C)(=O)c1ccc(C(CN)C(=O)Nc2cccc3c(-c4cn[nH]c4)c[nH]c23)cc1` (racemic) [Example 97, 3-amino-2-[4-(dimethylphosphoryl)phenyl]-N-[3-(1H-pyrazol-4-yl)-1H-Indol-7-yl]propanamide]?
Answer: IC50 [1]: 28 nM; IC50 [2]: 122 nM

Question: `NCC(C(=O)Nc1cccc2c(-c3cn[nH]c3)c[nH]c12)c1cccnc1` (single isomer, unassigned) [Example 33, N-(3-(1H-pyrazol-4-yl)-1H-indol-7-yl)-3-amino-2-(pyridin-3-yl)propanamide] was tested. Which IC50 [1] did it give?
Answer: 50 nM

Question: What about the IC50 [2] of the same molecule?
Answer: 97 nM

Question: Which results are given for `N[C@H](C(=O)Nc1cccc2c(-c3cn[nH]c3)c[nH]c12)c1cccnc1` (single isomer, unassigned) [Example 132, N-(3-(1H-pyrazol-4-yl)-1H-indol-7-yl)-2-amino-2-(pyridin-3-yl) acetamide]?
Answer: IC50 [1]: 0.39 nM; IC50 [2]: 0.76 nM

Question: `N#Cc1ccc(C(CN)C(=O)Nc2cccc3c(-c4cn[nH]c4)c[nH]c23)cc1` (single isomer, unassigned) [Example 58, N-(3-(1H-pyrazol-4-yl)-1H-indol-7-yl)-3-amino-2-(4-cyanophenyl)propanamide] was tested. Which IC50 [1] did it give?
Answer: 48 nM

Question: And the IC50 [2]?
Answer: 136 nM

Question: For `NCC(C(=O)Nc1cccc2c(-c3cn[nH]c3)c[nH]c12)c1ccc(N)cc1` (racemic) [Example 80, 3-amino-2-(4-aminophenyl)-N-[3-(1H-pyrazol-4-yl)-1H-indol-7-yl]propanamide], which IC50 [1] is on record?
Answer: 0.18 nM

Question: And the IC50 [2]?
Answer: 0.39 nM

Question: How did the IC50 [1] turn out when `NCC(C(=O)Nc1cccc2c(-c3cn[nH]c3)c[nH]c12)c1ccccn1` (racemic) [Example 98, 3-amino-N-[3-(1H-pyrazol-4-yl)-1H-indol-7-yl]-2-(pyridin-2-yl)propanamide] was run?
Answer: 4.3 nM

Question: And the IC50 [2]?
Answer: 9.2 nM

Question: For `NCC(C(=O)Nc1cccc2c(-c3cn[nH]c3)c[nH]c12)c1cccc(Cl)c1` (racemic) [Example 89, 3-amino-2-(3-chlorophenyl)-N-[3-(1H-pyrazol-4-yl)-1H-indol-7-yl]propanamide], which IC50 [1] is on record?
Answer: 0.66 nM

Question: And the IC50 [2]?
Answer: 1.2 nM

Question: Which IC50 [1] does the source give for `NCC(C(=O)Nc1cccc2c(-c3cn[nH]c3)c[nH]c12)c1ccc(C(N)=O)cc1` (single isomer, unassigned) [Example 113, 4-(1-((3-(1H-pyrazol-4-yl)-1H-indol-7-yl)amino)-3-amino-1-oxopropan-2-yl)benzamide] here?
Answer: 43 nM

Question: And the IC50 [2]?
Answer: 110 nM
